Laboratory results from patent US5411960A, “Substituted pyrroloanthracenes and -diones” (Bayer Aktiengesellschaft, priority 1993, dated 1995).

These molecules were tested on human T cells (monocyte-free) (assay: Inhibition of 5-HT-dependent T cell proliferation). Settings: inhibition of T cell proliferation stimulated with PWM (1:200) and 5-HT (100 μm), 3H-thymidine incorporation, 7 days, test range 33 μM-0.1 μM.
Assay type: cell-based
Text: The in vitro activity of the compounds according to the invention results from their capability to inhibit T cell proliferation, which is previously stimulated by serotonin.
Peripheral mononuclear blood cells (PBMC) are obtained from the buffy coat of the blood of healthy subjects. After isolation by means of isolymph gradients (Pharmacia), the PBMC are washed twice and used directly. Purified T cells are obtained by E rosette formation with sheep erythrocytes [cf. Blue, M. -L., J. F. Daley, H. Levine, K. A. Craig and S. F. Schlossmann, 1986, Biosynthesis and surface expression of T8 by peripheral blood T4+ cells in vitro, J. Immunol. 137, 1202]. Monocytes are partially removed by adhesion to tissue culture plates or flasks. PBMC, T cells or purified T cells (depleted in monocytes) at 5×10^5 /ml, 100 µl/well are cultured in RPMI 1640 medium with 10% fetal calf serum (GIBCO) and L-glutamine in 96-well microculture plates (Becton-Dickinson) under a 5% CO2 atmosphere at 37° C. for 7 days. The cultures are treated with 1 μCi of ^3 H-thymidine for 6 h on the 7th day and collected on filter paper, and the incorporated radioactivity is determined by means of liquid scintillation counting.
The test substances are dissolved in 10 mM HCl in order to achieve a final concentration of 1 mM in each case. The compounds are diluted serially 3× with medium in order to obtain a final concentration between 33 μM-0.1 μM. PWM (1:200, pokeweed mitogen) and 5-HT (100 μm, serotonin), which contain the test substances, are added to monocyte-free human T cells. The positive control (maximum proliferation ) is obtained from cultures containing T cells, PWM and 5-HT. The negative control (minimal proliferation) is obtained from cultures containing T cells and PWM without 5-HT. The inhibitory activity of the test substances is expressed as the IC50 in μM. (see also WO 92/04015)
With O=C1C2C3c4ccccc4C(c4ccccc43)C2C(=O)N1CCCN1CC2C3C=CC(C4CC34)C2C1 (centres unmarked) [Example 1, 13-[3-(4,6-Etheno-perhydro-cycloprop[f]isoindol-2-yl)propyl]-9,10-dihydro-9,10-[3', 4']-pyrroloanthracene-12,14[11H,15H) -dione] the IC50 was 5 µM. O=C1C2C3c4ccccc4C(c4ccccc43)C2C(=O)N1CCCN1CC2CCN(c3ccccc3)C2C1 (centres unmarked) [Example 2] gave an IC50 of 5 µM. O=C1C2C3c4ccccc4C(c4ccccc43)C2C(=O)N1CCCN1CC2CC=CC(CO)C2C1 (centres unmarked) [Example 3] gave an IC50 of 30 µM. In the case of O=C1C2C3c4ccccc4C(c4ccccc43)C2C(=O)N1CCCN1CC[Si](c2ccccc2)(c2ccccc2)CC1 (centres unmarked) [Example 4], the IC50 is reported as 20 µM. O=C1C2C3c4ccccc4C(c4ccccc43)C2C(=O)N1CCCN1CC2C3C=CC(C4CCC34)C2C1 (centres unmarked) [Example 5] was tested, and the IC50 was 4 µM. With c1ccc(CN2CCOC3CN(CCCN4CC5C6c7ccccc7C(c7ccccc76)C5C4)CC32)cc1 (centres unmarked) [Example 9] the IC50 was 20 µM. Work on c1ccc(N2CCC3CN(CCCN4CC5C6c7ccccc7C(c7ccccc76)C5C4)CC32)cc1 (centres unmarked) [Example 10] yielded an IC50 of 1 µM. In the case of C1=CC2C3CCC3C1C1CN(CCCN3CC4C5c6ccccc6C(c6ccccc65)C4C3)CC21 (centres unmarked) [Example 11], the IC50 is reported as 1 µM.
